Like-named read-outs stand apart in the source and are kept apart here.
Columns and labels:
[1] = tested on: dendritic cells; assay: Induction of IL-12 secretion in dendritic cells (ELISA); assay type: cell-based, BALB/c mice; conditions: casuarine alone, absence of LPS; 1 μg/ml versus 40 μg/ml
[2] = target: T1, α-D-glucosidase (Saccharomyces cerevisiae, UniProt P53341); assay: Glycosidase inhibition (p-nitrophenyl substrate): α-D-glucosidase, yeast; assay type: biochemical, Saccharomyces cerevisiae (Baker's yeast)
T1 construct: purchased Sigma
T1 sequence (P53341 whole entry): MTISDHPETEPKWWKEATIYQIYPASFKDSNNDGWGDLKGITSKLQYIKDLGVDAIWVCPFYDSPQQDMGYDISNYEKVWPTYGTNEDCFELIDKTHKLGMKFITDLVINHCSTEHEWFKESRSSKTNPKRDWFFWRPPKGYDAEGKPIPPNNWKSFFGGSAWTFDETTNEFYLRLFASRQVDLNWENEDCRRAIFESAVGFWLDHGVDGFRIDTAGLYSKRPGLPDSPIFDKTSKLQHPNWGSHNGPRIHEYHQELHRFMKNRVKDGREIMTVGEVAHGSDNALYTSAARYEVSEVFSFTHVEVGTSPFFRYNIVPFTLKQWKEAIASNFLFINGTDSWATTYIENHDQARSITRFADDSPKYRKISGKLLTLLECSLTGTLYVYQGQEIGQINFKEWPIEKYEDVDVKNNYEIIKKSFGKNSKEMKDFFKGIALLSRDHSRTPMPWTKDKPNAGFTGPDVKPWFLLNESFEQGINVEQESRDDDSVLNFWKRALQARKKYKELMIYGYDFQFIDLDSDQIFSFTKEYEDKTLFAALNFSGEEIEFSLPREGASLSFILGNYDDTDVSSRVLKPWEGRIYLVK
Method: (§1) All enzymes were purchased from Sigma, as were the appropriate p-nitrophenyl substrates. Assays were carried out in microtitre plates. Enzymes were assayed in 0.1M citric acid/0.2M di-sodium hydrogen phosphate (McIlvaine) buffers at the optimum pH for the enzyme. All assays were carried out at 20° C. For screening assays the incubation assay consisted of 10 μl of enzyme solution, 10 μl of inhibitor solution (made up in water) and 50 μl of the appropriate 5 mM p-nitrophenyl substrate (3.57 mM final conc.) made up in McIlvaine buffer at the optimum pH for the enzyme.
(§2) The reactions were stopped with 0.4M glycine (pH 10.4) during the exponential phase of the reaction, which was determined at the beginning of the assay using blanks with water, which were incubated for a range of time periods to measure the reaction rate using 5 mM substrate solution. Endpoint absorbances were read at 405 nm with a Biorad microtitre plate reader (Benchmark). Water was substituted for the inhibitors in the blanks.

[3] = target: T2, α-D-galactosidase (Coffea arabica, UniProt Q42656); assay: Glycosidase inhibition: α-D-galactosidase; assay type: biochemical, Green coffee beans (Coffea sp.); conditions: read-out: % inhibition, galactosidase
T2 construct: purchased Sigma
T2 sequence (Q42656 16-378): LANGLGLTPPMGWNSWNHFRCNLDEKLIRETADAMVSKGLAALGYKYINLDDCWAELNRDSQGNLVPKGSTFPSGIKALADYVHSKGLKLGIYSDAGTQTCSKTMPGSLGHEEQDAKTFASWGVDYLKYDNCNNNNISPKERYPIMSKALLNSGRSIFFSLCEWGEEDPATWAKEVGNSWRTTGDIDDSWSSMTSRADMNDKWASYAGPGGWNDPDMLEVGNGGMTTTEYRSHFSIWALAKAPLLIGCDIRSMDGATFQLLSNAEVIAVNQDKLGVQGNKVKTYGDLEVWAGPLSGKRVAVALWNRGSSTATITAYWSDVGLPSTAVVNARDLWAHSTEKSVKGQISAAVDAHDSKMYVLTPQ
Method: as §1, §2

[4] = target: T3, α-L-fucosidase (Bos taurus, UniProt Q2KIM0); assay: Glycosidase inhibition: α-L-fucosidase; assay type: biochemical, Bovine; conditions: 1 mg/ml; read-out: % inhibition, fucosidase
T3 construct: purchased Sigma
T3 sequence (Q2KIM0 23-468): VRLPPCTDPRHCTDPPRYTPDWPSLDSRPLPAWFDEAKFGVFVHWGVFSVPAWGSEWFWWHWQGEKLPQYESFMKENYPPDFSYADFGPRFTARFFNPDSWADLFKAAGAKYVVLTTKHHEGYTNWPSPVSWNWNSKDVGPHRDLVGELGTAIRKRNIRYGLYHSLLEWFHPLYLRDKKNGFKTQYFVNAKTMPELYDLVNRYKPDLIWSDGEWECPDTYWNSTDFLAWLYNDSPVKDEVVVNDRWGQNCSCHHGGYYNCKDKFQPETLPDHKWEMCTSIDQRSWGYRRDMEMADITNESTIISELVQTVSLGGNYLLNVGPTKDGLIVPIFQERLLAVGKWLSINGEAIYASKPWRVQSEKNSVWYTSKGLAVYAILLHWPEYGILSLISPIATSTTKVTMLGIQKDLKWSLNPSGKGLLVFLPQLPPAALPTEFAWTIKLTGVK
How it was run: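 Enzymes assayed at 20 °C in McIlvaine citrate/phosphate buffer at each enzyme's optimum pH with p-nitrophenyl substrate at 3.57 mM final. Reactions stopped with 0.4M glycine pH 10.4 within the exponential phase; endpoint absorbance at 405 nm against water blanks.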

[5] = tested on: MCF-7 cells; assay: Effect on glycosylation of breast cancer cells (N-glycan HPLC); assay type: cell-based; conditions: 0.75 mM, 62 and 86 hour time points
Method: MCF-7 cells (European Collection of Cell Cultures Ref. 86012803) were taken from liquid nitrogen stock, thawed at room temperature and transferred to 10 ml Dulbeccos Modified Eagle's Medium with Hams F12, 15 mM Hepes and L-glutamine (DMEM: Cambrex Cat. No. BE12-719F) supplemented with 10% v/v foetal calf serum (FCS: BioWest Labs Cat. No. S02755, Lot. No. S1800). The FCS was pre-filtered through a 0.2 μm sterile filter.
The cells were then centrifuged at 1,500 rpm in a Centaur bench-top centrifuge and the supernatant removed. The cells were reconstituted in fresh media and seeded into two T75 cm^3 Nunclon tissue culture flasks and allowed to settle overnight at 37° C. in a 5% CO2 incubator. The flasks were wrapped in cling film to prevent cross-contamination and the following day the media was changed to include the antibiotics penicillin and streptomycin as a precautionary measure against infection (at concentrations of 1 mg/cm^3 and 5 mg/cm^3, respectively). […]
The cells were harvested using a non-enzymatic method. At each of the time points the cells were viewed under the inverted light microscope and the morphology evaluated. […] The number of cells was then counted in a haemocytometer and cell viability evaluated by mixing 0.1 cm^3 of each cell suspension with a drop of trypan blue solution. […]
Evaluated using the BioRad protein assay according to the manufacturer's instructions. […]

[6] = tested on: HSV-1 (SC16)
[7] = Group 1: 15 mg/kg i.p. daily, day 0
[8] = Group 1: 15 mg/kg i.p. daily, day 1
[9] = Group 1: 15 mg/kg i.p. daily, day 2
[10] = Group 1: 15 mg/kg i.p. daily, day 3
[11] = Group 1: 15 mg/kg i.p. daily, day 4
[12] = Group 1: 15 mg/kg i.p. daily, day 5
[13] = Group 1: 15 mg/kg i.p. daily, day 6
[14] = Group 1: 15 mg/kg i.p. daily, day 7
[15] = Group 1: 15 mg/kg i.p. daily, day 8
[16] = Group 1: 15 mg/kg i.p. daily, day −2
[17] = Group 2: 150 mg/kg i.p. daily, day 0
[18] = Group 2: 150 mg/kg i.p. daily, day 1
[19] = Group 2: 150 mg/kg i.p. daily, day 2
[20] = Group 2: 150 mg/kg i.p. daily, day 3
[21] = Group 2: 150 mg/kg i.p. daily, day 4
[22] = Group 2: 150 mg/kg i.p. daily, day 5
[23] = Group 2: 150 mg/kg i.p. daily, day 6
[24] = Group 2: 150 mg/kg i.p. daily, day 7
[25] = Group 2: 150 mg/kg i.p. daily, day 8
[26] = Group 2: 150 mg/kg i.p. daily, day −2

With `OC[C@@H]1[C@@H](O)[C@H](O)[C@H]2[C@H](O)[C@@H](O)CN21` [casuarine (8)] the “induction of IL-12 secretion, dose response” value [1] was “higher at low doses than high”, the Ki [2] was 217 µM and the inhibition at 1000 µg/mL ([2]; 1 mg/ml, read-out: % inhibition, gluc (yeast)) was 64%. The inhibition at 1000 µg/mL [3] was 4%, the inhibition at 1000 µg/mL [4] was -1% and the “glycan synthesis and/or N-linked glycosylation in breast cancer cells” value [5] was “can inhibit glycan synthesis and/or N-linked glycosylation”. For the same compound, the Group mean weight [6, 7] was 16.7 g, the “Weight (% change)” value [6, 7] was 3.1% and the Group mean weight [6, 8] was 17.1 g. For the same compound, the “Weight (% change)” value [6, 8] was 5.6%, the Group mean weight [6, 9] was 17.1 g and the “Weight (% change)” value [6, 9] was 5.6%. The Group mean weight [6, 10] was 17.6 g, the “Weight (% change)” value [6, 10] was 8.6% and the Group mean weight [6, 11] was 17.4 g. For the same compound, the “Weight (% change)” value [6, 11] was 7.4%, the Group mean weight [6, 12] was 17.6 g and the “Weight (% change)” value [6, 12] was 8.6%. The Group mean weight [6, 13] was 17.7 g, the “Weight (% change)” value [6, 13] was 9.2% and the Group mean weight [6, 14] was 17.4 g. For the same compound, the “Weight (% change)” value [6, 14] was 7.4%, the Group mean weight [6, 15] was 17.7 g and the “Weight (% change)” value [6, 15] was 9.3%. The Group mean weight [6, 16] was 16.2 g, the “Weight (% change)” value [6, 16] was 0% and the Group mean weight [6, 17] was 16 g. The “Weight (% change)” value [6, 17] was 3.2%, the Group mean weight [6, 18] was 16.4 g and the “Weight (% change)” value [6, 18] was 5.8%. The Group mean weight [6, 19] was 16.3 g, the “Weight (% change)” value [6, 19] was 5.2% and the Group mean weight [6, 20] was 16.6 g. The “Weight (% change)” value [6, 20] was 7.1%, the Group mean weight [6, 21] was 16.4 g and the “Weight (% change)” value [6, 21] was 5.8%. For the same compound, the Group mean weight [6, 22] was 16.8 g, the “Weight (% change)” value [6, 22] was 8.4% and the Group mean weight [6, 23] was 17 g. The “Weight (% change)” value [6, 23] was 9.7%, the Group mean weight [6, 24] was 16.7 g and the “Weight (% change)” value [6, 24] was 7.7%. The Group mean weight [6, 25] was 16.8 g, the “Weight (% change)” value [6, 25] was 8.4% and the Group mean weight [6, 26] was 15.5 g. The “Weight (% change)” value [6, 26] was 0% and the ear thickness response ([6]; versus infected untreated group) was “produced a reduction in ear thickness”.

Reference: patent US20090117083A1, “IMMUNOMODULATORY ALKALOIDS” (M N L PHARMA LIMITED, priority 2004, published 2009)
